Several values for one entry are separate records, joined by “and”; a condition that tells them apart may be missing. Identical values can stand only once. Entries after “also recorded” stand apart in the source; their conditions may differ.
Key:
[1] = Decomposition temperature by TGA; assay type: physicochemical; conditions: methanesulfonate
Description: The thermogravimetric analysis (TGA) data are collected by TA Instruments Q500 TGA; the instrument control software is Thermal Advantage and the analysis software is Universal Analysis. Generally, take 5˜15 mg sample and place it in a platinum pan, adopt the segmental high-resolution testing mode, and under the protection of 50 mL/min dry N2, heat the sample from room temperature to 350° C. at the heating rate of 10° C./min, the weight changes of the sample during the course are recorded by TA software simultaneously.
Compare decomposition temperatures obtained by TGA tests.

[2] = Stirring test in water (XRPD comparison); assay type: physicochemical; conditions: methanesulfonate; for Stirring test in water: form after stirring: 10 mg in 1 mL water; for Stability in water or aqueous system(s): general statement
Description: (§1) The stability is performed by comparing the storage stability and the stirring test in water on crystalline forms.
The stirring test in water is performed by, for each crystalline form, adding an equal amount of the sample (10 mg) to an equal amount of water (1 mL) to form a suspension, stirring the suspensions for a certain time at room temperature, and then comparing their XRPDs.

[3] = Storage stability of crystal forms (XRPD before and after placement); assay type: physicochemical; conditions: methanesulfonate
Description: as §1
The storage stability is performed by placing the samples under a constant condition (i.e. under constant humidity or constant temperature) for a certain period of time, and then comparing their XRPDs before and after placement.

[4] = Dissolution profile in ultrapure water (HPLC); assay type: physicochemical; conditions: for Dissolution: ultrapure water
Description: The analysis data of high performance liquid chromatography (HPLC) are collected by Agilent 1260 with the chemical working station of B.04. The corresponding HPLC parameters in this research are: chromatographic column SB-C18 250×4.6 mm 5 μm; column temperature 35° C.; flow rate 0.6 mL/min; flow phase as shown below; wavelength 254 nm; sample inject volume 20 μl; operation time 30 min.
The comparison of dissolution profiles is performed by the following procedures: place about 6 mg the sample in a […], add 15 mL ultrapure water, and then seal the vial. A suspension is obtained from sonication with a working power of 40 Khz at room temperature, then take 1 mL of the suspension at 10 min, 30 min, 2 hr and 6 hr, respectively; filter it with 0.45 μm organic filter membrane to, take the filtrate to be measured by HPLC; stir the remaining suspension for 16 hr at room temperature, and then filter it with 0.45 μm organic filter membrane, take the filtrate to be measured by HPLC. FIG. 15 is the comparison plot of dissolution profiles of Crystal Form IV and the Known Crystal Form I in Experimental Example 1 (▴ refers to Crystal Form IV, ▮ refers to the Known Crystal Form I).

[5] = Hygroscopicity by dynamic vapor sorption (DVS); assay type: physicochemical
Description: The dynamic vapor sorption analysis (DVS) data are collected by TA Instruments Q5000 TGA; the instrument control software is Thermal Advantage and the analysis software is Universal Analysis. Generally, take 1˜10 mg of the sample and place it in a platinum pan, and the weight changes of the sample are recorded during the course of the relative humidity changing from 0% to 80% and then to 0%. According to the specifics of the samples, different adsorption and desorption steps may be used.
Compare hygroscopicity in weight changes of samples between 20%-80% RH obtained by DVS tests.

[6] = Stability during wet granulation in formulation process (XRPD); assay type: physicochemical; conditions: methanesulfonate; for Form of API in wet granule sample (XRPD): wet granulation with 50% aqueous ethanol, lactose monohydrate, microcrystalline cellulose
Text: The stability of the Known Crystal Form I of Dabrafenib methanesulfonate and Crystal Form IV of the present invention during wet granulation in formulation process was studied.
Wet granulation experiments in the formulation process were parallel experiments. The specific steps are:
1) Blend API (the Known Crystal Form I or Crystal Form IV of the present invention), lactose (monohydrate) and microcrystalline cellulose uniformly.
2) Make the above mixture into soft materials by using appropriate amount of 50% aqueous ethanol solution, screen to produce wet granules.
3) Dry the wet granules and then granulate them, blend with polyethylene glycol 6000 uniformly and then compress them into tablets.
Characterize the Known Crystal Form I and Crystal Form IV of the present invention samples obtained from the formulation process of: (1) the sample obtained from physically mixing lactose monohydrate and microcrystalline cellulose at the ratios per the formulation; (2) the sample obtained from physically mixing of API, lactose monohydrate and microcrystalline cellulose at the ratios per the formulation; (3) the wet granule sample obtained from the wet granulation process (excluding the compressed tablets in Step 3). See XRPDs in FIG. 16 and FIG. 17.

[7] = tested on: one or more Raf-family kinases; conditions: disclosed in WO2009/137391 and CN200980126781.6; cited from earlier work
BRAFV600E-mutan melanoma = conditions: patients with BRAFV600E-mutan melanoma; cited from earlier work
[8] = stirred 15 min at room temperature
[9] = stored for 1 month at room temperature - 97% RH
[10] = stored for 1 month at room temperature
[11] = 6 hours + 16 hours stirring at room temperature, methanesulfonate
[12] = sonication, room temperature, 10 minutes, methanesulfonate
[13] = sonication, room temperature, 30 minutes, methanesulfonate
[14] = sonication, room temperature, 2 hours, methanesulfonate
[15] = sonication, room temperature, 6 hours, methanesulfonate

| SMILES | Stirring test in water: form after stirring [2, 8] | Stability in water or aqueous system(s) [2] | Storage stability (crystal form) [3, 9] | Storage stability (crystal form) [3, 10] | Dissolution [4, 11] [mg/mL] | Dissolution [4, 12] [mg/mL] | Dissolution [4, 13] [mg/mL] | Dissolution [4, 14] [mg/mL] | Dissolution [4, 15] [mg/mL] | Stability in the wet granulation process [6] | Form of API in wet granule sample (XRPD) [6] | further results |
| --- | --- | --- | --- | --- | --- | --- | --- | --- | --- | --- | --- | --- |
| CC(C)(C)c1nc(-c2cccc(NS(=O)(=O)c3c(F)cccc3F)c2F)c(-c2ccnc(N)n2)s1 [Crystal Form II, N-[3-[5-(2-amino-4-pyrimidinyl)-2-(tert-butyl)-thiazol-4-yl]-2-fluorophenyl]-2,6-difluorobenzene sulfonamide methanesulfonate] | – | – | – | – | – | – | – | – | – | – | – | Decomposition temperature [1]: 287 °C |
| CC(C)(C)c1nc(-c2cccc(NS(=O)(=O)c3c(F)cccc3F)c2F)c(-c2ccnc(N)n2)s1 [Crystal Form IV, N-[3-[5-(2-amino-4-pyrimidinyl)-2-(tert-butyl)-thiazol-4-yl]-2-fluorophenyl]-2,6-difluorobenzene sulfonamide methanesulfonate] | still remained as methanesulfonate; also recorded: still remains its Crystal Form IV of methanesulfonate; also recorded: remained as methanesulfonate and after | better stability in water or aqueous system(s) | remained unchanged and stable and 97% RH, respectively, the crystal forms remained unchanged. | remained unchanged and stable and 97% RH, respectively, the crystal forms remained unchanged. | 0.000178 | 0.000532 | 0.000303 | 0.000376 | 0.000488 | stable | remained as Crystal Form IV | Stirring test in water: form after stirring ([2]; stirred overnight at room temperature): converted to its free base; also recorded: converts to its free base monohydrate; also recorded: free base (FIG. 14); Dissolution rate / dissolution quantity compared with the Known Crystal Form I ([4]; 0~22 h, any test point, methanesulfonate): higher than that of the Known Crystal Form I at any test point; also recorded: larger than that of the Known Crystal Form I at any test point; Time to the end point in water during dissolution ([4]; compared with the Known Crystal Form I): Form IV is shorter than that of the Known Crystal Form I.; Weight change (dynamic vapor sorption) ([5]; between 20% RH-80% RH): 2.0% |
| CC(C)(C)c1nc(-c2cccc(NS(=O)(=O)c3c(F)cccc3F)c2F)c(-c2ccnc(N)n2)s1 [Dabrafenib methanesulfonate, N-[3-[5-(2-amino-4-pyrimidinyl)-2-(tert-butyl)-thiazol-4-yl]-2-fluorophenyl]-2,6-difluorobenzene sulfonamide methanesulfonate] | – | – | – | – | – | – | – | – | – | – | – | Inhibitory effects on Raf-family kinases [7]: exhibited inhibitory effects |
| CC(C)(C)c1nc(-c2cccc(NS(=O)(=O)c3c(F)cccc3F)c2F)c(-c2ccnc(N)n2)s1 [Dabrafenib] | – | – | – | – | – | – | – | – | – | – | – | Safety profile (BRAFV600E-mutan melanoma): acceptable safety profile; Therapeutic activity (BRAFV600E-mutan melanoma): has therapeutic activities |
| CC(C)(C)c1nc(-c2cccc(NS(=O)(=O)c3c(F)cccc3F)c2F)c(-c2ccnc(N)n2)s1 [Known Crystal Form I, N-[3-[5-(2-amino-4-pyrimidinyl)-2-(tert-butyl)-thiazol-4-yl]-2-fluorophenyl]-2,6-difluorobenzene sulfonamide methanesulfonate, reference compound] | consistent with the above-mentioned Dabrafenib free base hydrate; also recorded: converted to its free base; also recorded: converts to its free base monohydrate; also recorded: min, it converted to the free | readily converts to free base | remained unchanged and 97% RH, respectively, the crystal forms remained unchanged. | remained unchanged and 97% RH, respectively, the crystal forms remained unchanged. | 7.48e-05 | 0.00012 | 7.23e-05 | 9.28e-05 | 8.88e-05 | unstable | partially or totally converted to Dabrafenib free base hydrate | Form stability under humidity ([5]; 25° C. and 20-80% RH, methanesulfonate): stable at 25 °C and 20-; Hygroscopicity ([5]; DVS): Non-hygroscopic; the form is |

— patent publication US9884856B2, “Crystal form of Dabrafenib mesylate and preparation method thereof” (Hangzhou Pushai Pharmaceutical Technology Co., LTD., priority 2013, dated 2018)
